“Also recorded” adds a separate entry of the source. Read-outs that look alike come from different tables or passages of the source. Where a SMILES comes first, the peptide text is derived from it. [ ]: non-standard residue; d: D form. Orn(N5-OH,N5-Ac) = CC(=O)N(O)CCC[C@H](N)C(=O)O
Tests used:
PARP = assay: Western blotting for PARP in SW620; type: cell-based; details: ferrichrome-treated SW620, Western blotting
From the text: (§1) Total proteins recovered from the ferrichrome-treated colorectal cancer cell line SW620 using mammalian cell extraction kit (BioVision) were subjected to Western blotting using specific antibodies for cleaved caspase-3 and PARP (Cell Signaling), respectively.

[1] = tested on: colorectal cancer cell line Caco2/bbe; assay: SRB assay, colorectal cancer cell line Caco2/bbe; type: cell-based
Description: (§2) L. casei ATCC334, LGG ATCC53103, L. coryniformis ATCC25600 and L. fermentis ATCC23271 were purchased from ATCC. These microorganisms were cultured overnight at 37° C. using MRS broth (Difco) and then transferred to MEM and cultured for one day. The cultured medium was centrifuged at 5,000×g for 10 minutes to collect the supernatant, which was filtered through a 0.2 μm filter and used as the culture supernatant in the following examples.
(§3) By using the colorectal cancer cell lines Caco2/bbe, SKCO-1 and SW620 as test cells and the culture supernatants of LGG ATCC53103, L. casei ATCC334, L. coryniformis ATCC25600 and L. fermentis ATCC23271 as measurement samples, an antitumor activity of each supernatant was measured by SRB-assay.

[2] = tested on: tumor in the large intestine; assay: AOM-DSS chemical carcinogenic mice, intraperitoneal administration; type: in vivo; details: 100 μg intraperitoneally once every 2 days for 49 days, vs PBS
Description: Azoxymethane (AOM) was administered intraperitoneally at 10 mg/kg to BALB/c mice (6 weeks old, male). Following 1 week breeding after AOM treatment, mice were administered drinking water containing dextran sulfate sodium (DSS, MP bio) diluted to 1% with distilled water by free access for 1 week. After a 1-week wash-out period, 100 μg of ferrichrome dissolved in PBS was intraperitoneally administered once every 2 days for 49 days under normal breeding conditions. After breeding, the large intestine was taken out from the mice and the tumor area was measured.
Normal mice not administered AOM and DSS and chemical carcinogenic mice intraperitoneally administered PBS alone were prepared, respectively, and the tumor area in the large intestine was measured in the same manner. Photographs showing the appearance of the large intestine in each mouse are shown in FIG. 25, and tumor areas in the large intestine are shown in FIG. 26.

cleaved caspase-3 = assay: Western blotting for cleaved caspase-3 in SW620; type: cell-based; details: ferrichrome-treated SW620, Western blotting
From the text: as §1

[3] = tested on: gastric cancer cell line MKN74; assay: Antitumor activity, gastric cancer cell line MKN74; type: cell-based
[4] = tested on: pancreatic cancer cell line KP3; assay: Antitumor activity, pancreatic cancer cell line KP3; type: cell-based
[5] = tested on: colorectal cancer cell line SKCO-1; assay: SRB assay, colorectal cancer cell line SKCO-1; type: cell-based; details: SKCO-1, SRB assay
Description: as §2, §3

[6] = tested on: esophageal cancer cell line OE19; assay: Antitumor activity, esophageal cancer cell line OE19; type: cell-based
[7] = tested on: gastric cancer cell line SH-10-TC; assay: SRB assay, gastric cancer cell line SH-10-TC; type: cell-based
[8] = tested on: pancreatic cancer cell line Miapaca; assay: Antitumor activity, pancreatic cancer cell line Miapaca; type: cell-based
[9] = tested on: tumor in the large intestine; assay: AOM-DSS chemical carcinogenic mice, oral administration; type: in vivo; details: 50 μg orally daily for 28 days, vs PBS
Description: Azoxymethane (AOM) was administered intraperitoneally at 10 mg/kg to BALB/c mice (6 weeks old, male). Following 1 week breeding after AOM treatment, mice were administered drinking water containing dextran sulfate sodium (DSS, MP bio) diluted to 1.5% with distilled water by free access for 1 week. After a 1-week wash-out period, mice were administered drinking water containing dextran sulfate sodium (DSS, MP bio) diluted to 1% with distilled water by free access for 1 week, to prepare chemical carcinogenic models. After one more 1-week wash-out period, 50 μg of ferrichrome diluted in PBS was orally administered daily for 28 days under normal breeding conditions. After breeding, the large intestine was taken out from the mice and the tumor area was measured.
Normal mice not administered AOM and DSS and chemical carcinogenic mice orally administered PBS alone were prepared, respectively, and the tumor area in the large intestine was measured in the same manner. Photographs showing the appearance of the large intestine in each mouse are shown in FIG. 23, and tumor areas in the large intestine are shown in FIG. 24.

[10] = Blood AST, ALT and serum iron in C57/BL6 mice; type: in vivo; details: oral or intravenous, 10 μg or 100 μg/day for 7 days, vs controls
Description: Blood AST (aspartate aminotransferase), ALT (alanine aminotransferase), and serum iron were measured in C57/BL6 mice (n=5) after oral or intravenous administration of 10 μg or 100 μg of ferrichrome/day for 7 days.

[11] = tested on: pancreatic cancer cell line KP3L; assay: Antitumor activity, pancreatic cancer cell line KP3L; type: cell-based
[12] = tested on: colorectal cancer cell line HT29; assay: SRB assay, colorectal cancer cell line HT29; type: cell-based
[13] = tested on: esophageal cancer cell line OE33; assay: SRB assay, esophageal cancer cell line OE33; type: cell-based
[14] = tested on: colorectal cancer cell line SW620; assay: SRB assay, colorectal cancer cell line SW620; type: cell-based
Description: as §2, §3
This fraction was subjected to mass spectrometry (TOF, ionization method: micro ESI) using Nano Frontier elD Liquid Chromatograpy Mass Spectrometer (Hitachi High-technologies), and a chart shown in FIG. 3A was obtained. The peak at m/z 763.2 in this chart was approximately consistent with that in the chart obtained for commercial ferrichrome (Sigma-Aldrich) by mass spectrometry in a similar mannar (FIG. 3B). By using commercially available ferrichrome as a measurement sample and the colorectal cancer cell line SW620 as a test cell, an antitumor activity was measured.

[15] = tested on: pancreatic cancer cell line KP1N; assay: Antitumor activity, pancreatic cancer cell line KP1N; type: cell-based
[16] = tested on: colorectal cancer cell line SW620; assay: TUNEL staining of SW620; type: cell-based; details: SW620, 0.1 μg/mL
[17] = tested on: colorectal cancer cell line HCT116; assay: SRB assay, colorectal cancer cell line HCT116; type: cell-based
[18] = tested on: rat intestinal epithelial cell line IEC-18; assay: SRB assay, rat intestinal epithelial cell line IEC-18; details: rat intestinal epithelial cells
phosphorylated JNK = assay: Western blotting for phosphorylated JNK in SW620; type: cell-based; details: ferrichrome-treated SW620, Western blotting
[19] = tested on: colorectal cancer cell line SW620; assay: SW620 subcutaneous transplantation in BALB/c-nude mice; type: in vivo; details: 10 μg/day to the transplantation site, daily, observed for 9 days, vs PBS
From the text: 2×10^6 cells of colorectal cancer cell line SW620 were transplanted subcutaneously into the back of BALB/c-nude mice. […] The appearance of the mice on day 1 after transplantation and on day 9 after transplantation are shown in FIG. 6, and the change in tumor mass volume is shown in FIG. 7, respectively.

[20] = tested on: pancreatic cancer cell line bxpc3; assay: SRB assay, pancreatic cancer cell line bxpc3; type: cell-based
[21] = tested on: mouse primary intestinal epithelial cells; assay: SRB assay, mouse primary intestinal epithelial cells; type: cell-based
Description: Mouse primary intestinal epithelial cells were prepared and cultured according to the method as reported previously (Liu X et al., Am J Pathol. 2012 February; 180(2): 599-607).

[22] = tested on: pancreatic cancer cell Suit2; assay: Suit2 subcutaneous transplantation in nude mice; type: in vivo; details: 100 μg intraperitoneally once every two days for 12 days, vs PBS
Description: Two days after subcutaneous transplantation of 1×10^6 pancreatic cancer cell Suit2 in two groups of nude mice (n=5/group), 100 μg of ferrichrome dissolved in PBS in one group and PBS alone in the other group were administered intraperitoneally once every two days for 12 days under normal breeding Conditions. A photograph of the transplantation site 12 days after transplantation is shown in FIG. 21, and the change in volume of the tumor mass is shown in FIG. 22.

[23] = tested on: DNA damage-inducible transcript 3 (DDIT3); assay: DDIT3 expression in SW620; type: cell-based
Description: Changes in mRNA expression between ferrichrome-treated and untreated colorectal cancer cell line SW620 were measured by high-throughput sequence analysis using a MetaCore software program. […] DDIT3 is a protein known to be involved in Bax-Bak mitochondrial permeation and JNK signaling (Tabas I, Ron D. Nat Cell Biol. 2011 March; 13(3): 184-90).

[24] = tested on: gastric cancer cells MKN45; assay: MKN45 subcutaneous transplantation in BALB/c nude mice; type: in vivo; details: 100 μg daily into the transplantation site, vs PBS
Description: Two groups of BALB/c nude mice (n=6/group) were transplanted with 1×10^6 gastric cancer cells MKN45 by subcutaneous injection into their back. Each day from the day following transplantation, 100 μg of ferrichrome dissolved in PBS in one group and PBS alone in the other group were administered into the transplantation site, and the mice were kept under normal breeding conditions for 21 days. Photographs of the transplantation site 1 day and 19 days after transplantation are shown in FIG. 19, and the change in tumor volume ratio when the tumor volume 1 day after transplantation set to 1 is shown in FIG. 20.

[25] = tested on: gastric cancer cell line MKN45; assay: SRB assay, gastric cancer cell line MKN45; type: cell-based
[26] = tested on: pancreatic cancer cell line suit2; assay: SRB assay, pancreatic cancer cell line suit2; type: cell-based
[27] = tested on: gastric cancer cell line MKN7; assay: Antitumor activity, gastric cancer cell line MKN7; type: cell-based
[28] = tested on: rat intestinal epithelial cell line IEC-18

In the case of CC(=O)N([O-])CCC[C@@H]1NC(=O)CNC(=O)CNC(=O)CNC(=O)[C@H](CCCN([O-])C(C)=O)NC(=O)[C@H](CCCN([O-])C(C)=O)NC1=O.[Fe+3] [ferrichrome] (cyclo(GGG[Orn(N5-OH,N5-Ac)][Orn(N5-OH,N5-Ac)][Orn(N5-OH,N5-Ac)])), the “expression of PARP” value (PARP) is reported as “increased dose-dependently”, the “antitumor activity (cell density, OD at 510 nm)” value [1] is reported as “dose-dependent antitumor activity” and the “tumor area in the large intestine” value [2] is reported as “significantly suppressed”. For the same compound, the “expression of cleaved caspase-3” value (cleaved caspase-3) was “increased dose-dependently”, the antitumor activity [3] was “exhibit an antitumor activity” and the antitumor activity [4] was “exhibit an antitumor activity”. The “antitumor activity (cell density, OD at 510 nm)” value [5] was “exhibited an antitumor activity”, the antitumor activity [6] was “exhibit an antitumor activity” and the “antitumor activity (cell density, OD at 510 nm)” value [7] was “dose-dependent antitumor activity”. For the same compound, the antitumor activity [8] was “exhibit an antitumor activity”, the “tumor area in the large intestine” value [9] was “significantly suppressed” and the “blood ALT (alanine aminotransferase)” value [10] was “No significant changes”. For the same compound, the “blood AST (aspartate aminotransferase)” value [10] was “No significant changes”, the serum iron [10] was “No significant changes” and the antitumor activity [11] was “exhibit an antitumor activity”. The antitumor activity [12] was “exhibited an antitumor activity”, the “antitumor activity (cell density, OD at 510 nm)” value [13] was “dose-dependent antitumor activity” and the “antitumor activity (cell density, OD at 510 nm)” value [14] was “dose-dependent antitumor activity”. The “antitumor activity compared with 5-FU and cisplatin” value [14] was “higher antitumor activity”, the “antitumor activity (cell density, OD at 510 nm)” value ([14]; listed as Ferrichrome) was “strong antitumor activity” and the antitumor activity [15] was “exhibit an antitumor activity”. For the same compound, the “induction of apoptosis (TUNEL stain-positive cells)” value [16] was “induction of apoptosis was also confirmed”, the antitumor activity [17] was “exhibited an antitumor activity” and the “effect on cell density of IEC-18” value [18] was “not significantly reducing cell densities; also recorded: did not significantly affect the cell density”. For the same compound, the “expression of phosphorylated JNK” value (phosphorylated JNK) was “increased”, the “growth of the tumor mass (tumor mass volume)” value [19] was “markedly inhibited the growth of the tumor mass” and the “antitumor activity (cell density, OD at 510 nm)” value [20] was “dose-dependent antitumor activity”. For the same compound, the “effect on cell density of mouse primary intestinal epithelial cells” value [21] was “not significantly reducing cell densities”, the “increase in tumor volume” value [22] was “markedly suppressed” and the “expression of DDIT3” value ([23]; SW620, RT-PCR and Western blotting) was “enhanced expression”. The “mRNA expression level of DDIT3” value ([23]; SW620 treated vs untreated, high-throughput sequence analysis) was “remarkable change (increase in expression)”, the “tumor volume ratio (volume 1 day after transplantation set to 1)” value ([24]; 21 days) was “suppressed” and the “tumor mass size at the transplantation site” value [24] was “reduced to such an extent that it could be clearly distinguished by the naked eye”. The “antitumor activity (cell density, OD at 510 nm)” value [25] was “dose-dependent antitumor activity”, the “antitumor activity (cell density, OD at 510 nm)” value [26] was “dose-dependent antitumor activity” and the antitumor activity [27] was “exhibit an antitumor activity”.

In the case of N.N.[Cl][Pt][Cl] [cisplatin], the “effect on cell density of IEC-18” value [28] is reported as “reduced a cell density”.

In the case of O=c1[nH]cc(F)c(=O)[nH]1 [5-FU, 5-fluorouracil], the “effect on cell density of IEC-18” value [28] is reported as “reduced a cell density”.

— patent US10576126B2, “Antitumor agent” (NATIONAL UNIVERSITY CORPORATION ASAHIKAWA MEDICAL UNIVERSITY, priority 2016, dated 2020)
